Data on 1 molecule can be found in US7258738B2, “Cementing compositions including salts” (Halliburton Energy Services, Inc., priority 2005, dated 2007).

One data set concerns skeletonema costatum. As to the kind of experiment: Algae toxicity, ISO 10253 (HOCNF). The following applies: amount required to kill or incapacitate half the test population. The format is in vivo. An excerpt: (§1) According to still other embodiments described herein, a disulfonate salt of 2,4-pentanedione is provided. According to one such embodiment, the salt comprises 2,4-pentanedione-1,5-sodium disulfonate. According to another such embodiment, a disulfonate salt of 2,4-pentanedione has an environmentally acceptable toxicity. As used herein, the term “environmentally acceptable toxicity” means that, when tested according to procedures that are the same as or equivalent to those set forth by the OSPAR Guidelines for Completing the Harmonised Offshore Chemical Notification Format (HOCNF) (References number: 2003-1) that were in effect on Dec. 31, 2004, the salt is determined to have a toxicity of greater than about 10,000 mg/L for an algae (skeletonema costatum), a crustacean (acartia tonsa), a fish (scopthalmus) and a sediment reworker (corophium volutator). […]
(§2) In this Example 3, the toxicity results for the skeletonema costatum were determined according to ISO (International Organization for Standardization) 10253, the protocol for which is known to those of ordinary skill in the art, and is also the protocol required under the above-referenced HOCNF Guidelines. The toxicity results for the acartia tonsa were determined according to ISO 14669, the protocol for which is known to those of ordinary skill in the art. […]

For a further data set, the system named is acartia tonsa. Description: Crustacean toxicity, ISO 14669. The following applies: amount required to kill or incapacitate half the test population. The format is in vivo.
Source text: as §1, §2

The test system of a further data set is scopthalmus. As to the kind of experiment: Fish toxicity, Part B of the OSPAR Protocols. The format is in vivo. To be noted: amount required to kill or incapacitate half the test population.
Source text: as §1, §2

The next data set concerns corophium volutator. As to the kind of experiment: Sediment reworker toxicity, Part B of the OSPAR Protocols. To be noted: amount required to kill or incapacitate half the test population. The format is in vivo.
Source text: as §1, §2

Data set [1] is described as follows: Solubility of salt compared to free acid (methanol rinse). In kind it is physicochemical. From the text: The neutralized product was then rinsed several times with methanol to remove by-product acids, or any salts formed therefrom, while leaving the 2,4-pentanedione-1,5-sodium disulfonate primarily undissolved. […] The rinsed product was dried in a vacuum oven and filtered through a 300 mesh screen to afford a flowing pale orange/red powder. The resulting powder was 2,4-pentanedione-1,5-sodium disulfonate.

On to `O=C(CC(=O)CS(=O)(=O)[O-])CS(=O)(=O)[O-].[Na+].[Na+]` [2,4-pentanedione-1,5-sodium disulfonate], for which the toxicity entry with skeletonema costatum, with acartia tonsa, with scopthalmus and in the data set with corophium volutator was “greater than 10,000 mg/L” throughout. Moreover, the “solubility compared to the 2,4-pentanedione-1,5-disulfonic free acid” value in data set [1] is recorded as “significantly less soluble”.
